Source: the NIST ThermoML archive (doi:10.1016/j.jct.2016.10.035)
Numbers after ± are expanded uncertainties.

Details: 298.15 K; 100 kPa; Crystal; X-ray diffraction

**Q.** With `O=P([O-])([O-])[O-].O=P([O-])([O-])[O-].O=P([O-])([O-])[O-].[Ca+2].[Ca+2].[Ca+2].[Ca+2].[Ca+2].[OH-]` [hydroxyapatite] as the molecule, how does the mass density read?
**A.** The mass density was 3155 ± 12 kg/m3.
